Experimental data from paper PMC10013835 (Proceedings of the National Academy of Sciences of the …, 2023).
Positions count from the first letter of the chain named. Read-outs that look alike come from different tables or passages of the source.

Experiments:
[1] = molecular target: T1, W299A mutant PXR (Homo sapiens, UniProt O75469, W299A); details: 293T cells, 24 h, Fig. 6
T1 sequence (O75469 1-434 W299A): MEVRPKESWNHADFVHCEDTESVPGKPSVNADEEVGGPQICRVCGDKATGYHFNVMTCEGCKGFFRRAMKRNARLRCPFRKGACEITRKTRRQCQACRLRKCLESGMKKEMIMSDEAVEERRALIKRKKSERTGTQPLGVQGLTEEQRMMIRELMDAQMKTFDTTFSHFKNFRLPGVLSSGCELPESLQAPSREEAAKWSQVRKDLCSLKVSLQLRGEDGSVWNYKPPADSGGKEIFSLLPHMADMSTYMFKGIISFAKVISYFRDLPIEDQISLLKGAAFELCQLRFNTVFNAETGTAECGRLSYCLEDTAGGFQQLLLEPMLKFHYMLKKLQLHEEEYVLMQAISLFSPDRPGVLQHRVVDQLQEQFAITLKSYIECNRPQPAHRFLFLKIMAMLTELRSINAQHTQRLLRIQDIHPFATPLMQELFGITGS

[2] = molecular target: T2, PXR (Homo sapiens, UniProt O75469); format: cell-based; details: WT PXR-transfected 293T cells, 24 h, Fig. 5
T2 sequence (O75469 1-434): T1 sequence (O75469 1-434 W299A) with A299W

[3] = molecular target: T3, PXR LBD (Homo sapiens, UniProt O75469)
T3 sequence (O75469 146-433 limits assumed): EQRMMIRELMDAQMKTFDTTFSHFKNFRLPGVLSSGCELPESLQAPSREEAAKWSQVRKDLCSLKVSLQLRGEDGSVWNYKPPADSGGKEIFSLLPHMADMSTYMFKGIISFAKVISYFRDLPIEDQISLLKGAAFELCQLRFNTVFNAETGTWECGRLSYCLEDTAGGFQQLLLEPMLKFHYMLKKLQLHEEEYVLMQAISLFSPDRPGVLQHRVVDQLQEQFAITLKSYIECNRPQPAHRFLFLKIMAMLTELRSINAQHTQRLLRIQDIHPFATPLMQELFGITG

[4] = molecular target: T3, PXR LBD; assay: biochemical; details: PXR LBD binding [IC50 ± SD (µM)]

SMILES: CO[C@H]1/C=C/O[C@@]2(C)Oc3c(C)c(O)c4c(c3C2=O)C(=O)C=C(NC(=O)/C(C)=C\C=C\[C@H](C)[C@H](O)[C@@H](C)[C@@H](O)[C@@H](C)[C@H](OC(C)=O)[C@@H]1C)C4=O [Rifamycin S]
- reporter activity for W299A PXR versus WT, in words [1]: nearly completely inactive
- cellular PXR activity (luciferase reporter), in words [2]: marginally better than rifampicin
- Group (PXR LBD binding affinity group) ([3]; human, pH 7.5): 2
- IC50 [4]: 0.054 ± 0.014 µM

SMILES: CO[C@H]1/C=C/O[C@@]2(C)Oc3c(C)c(O)c4c(c3C2=O)C2=NC3(CCN(CC(C)C)CC3)NC2=C(NC(=O)/C(C)=C\C=C\[C@H](C)[C@H](O)[C@@H](C)[C@@H](O)[C@@H](C)[C@H](OC(C)=O)[C@@H]1C)C4=O [Rifabutin]
- reporter activity for W299A PXR versus WT, in words [1]: changed very little
- Group (PXR LBD binding affinity group) ([3]; human, pH 7.5): 1
- IC50 [4]: 11.8 ± 4.4 µM

SMILES: CO[C@H]1/C=C/O[C@@]2(C)Oc3c(C)c(O)c4c(O)c(cc(O)c4c3C2=O)NC(=O)/C(C)=C\C=C\[C@H](C)[C@H](O)[C@@H](C)[C@@H](O)[C@@H](C)[C@H](OC(C)=O)[C@@H]1C [Rifamycin]
- cellular PXR activity (luciferase reporter), in words [2]: marginally better than rifampicin
- Group (PXR LBD binding affinity group) ([3]; human, pH 7.5): 2
- IC50 [4]: 0.067 ± 0.009 µM

SMILES: CO[C@H]1/C=C/O[C@@]2(C)Oc3c(C)c(O)c4c(O)c(c5c(nc6cc(C)ccn65)c4c3C2=O)NC(=O)/C(C)=C\C=C\[C@H](C)[C@H](O)[C@@H](C)[C@@H](O)[C@@H](C)[C@H](OC(C)=O)[C@@H]1C [Rifaximin]
- FC, fold change, compound's IC50 divided by that of rifampicin ([3]; PXR LBD binding, relative to rifampicin): 4.2
- Group (PXR LBD binding affinity group) ([3]; grouping relative to rifampicin affinity): 1
- IC50 ([4]; TR-FRET, GST-PXR LBD, rifampicin analog series): 11.4 ± 3.3 µM
